The text below walks through data of patent US8778951B2, “Heteroaryl compounds and their uses” (Novartis AG, priority 2009, dated 2014).

Cdk9/cyclinT1, sequence (P50750 whole entry): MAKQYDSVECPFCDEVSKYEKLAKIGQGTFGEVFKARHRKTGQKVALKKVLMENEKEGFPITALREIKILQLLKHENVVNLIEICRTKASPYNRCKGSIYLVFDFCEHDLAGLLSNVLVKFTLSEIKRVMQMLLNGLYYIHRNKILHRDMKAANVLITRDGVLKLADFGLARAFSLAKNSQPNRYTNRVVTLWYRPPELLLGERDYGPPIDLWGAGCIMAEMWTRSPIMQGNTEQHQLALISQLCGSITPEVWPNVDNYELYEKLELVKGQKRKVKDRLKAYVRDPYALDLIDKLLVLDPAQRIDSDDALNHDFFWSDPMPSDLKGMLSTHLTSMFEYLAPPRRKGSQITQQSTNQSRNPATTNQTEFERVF
Cdk9/cyclinT1, sequence (O60563 whole entry partner): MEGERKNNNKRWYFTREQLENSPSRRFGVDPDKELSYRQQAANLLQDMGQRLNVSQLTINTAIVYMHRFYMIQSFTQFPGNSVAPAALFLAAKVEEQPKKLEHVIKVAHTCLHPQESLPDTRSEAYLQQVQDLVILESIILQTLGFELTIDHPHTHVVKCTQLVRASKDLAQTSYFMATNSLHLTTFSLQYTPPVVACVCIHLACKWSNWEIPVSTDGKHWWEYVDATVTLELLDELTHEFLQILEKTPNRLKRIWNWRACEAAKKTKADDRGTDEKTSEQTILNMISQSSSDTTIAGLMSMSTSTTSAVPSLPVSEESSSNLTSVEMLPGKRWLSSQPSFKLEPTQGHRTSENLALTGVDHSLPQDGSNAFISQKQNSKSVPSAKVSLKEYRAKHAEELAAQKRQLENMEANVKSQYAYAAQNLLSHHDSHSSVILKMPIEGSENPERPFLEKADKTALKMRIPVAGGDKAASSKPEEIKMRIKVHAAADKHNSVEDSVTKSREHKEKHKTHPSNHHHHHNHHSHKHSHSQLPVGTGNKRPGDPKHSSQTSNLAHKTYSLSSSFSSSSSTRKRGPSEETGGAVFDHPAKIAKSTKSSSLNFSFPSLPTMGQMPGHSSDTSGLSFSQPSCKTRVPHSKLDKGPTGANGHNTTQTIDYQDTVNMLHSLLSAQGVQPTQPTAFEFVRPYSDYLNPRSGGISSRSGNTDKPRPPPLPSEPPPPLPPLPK

The experiment addresses Cdk9/cyclinT1 (Homo sapiens (Human), UniProt P50750). Put plainly: Cdk9/CyclinT1 IMAP Protocol (fluorescence polarization kinase assay). Format: biochemical. Conditions: Table 2; generated using one of the two Cdk9/cyclinT1 assays (IMAP or Alpha Screen), not specified which; unit inferred. How it is done: Cdk9/CyclinT1 IMAP Protocol
The biological activity of the compounds of the invention can be determined using the assay described below.
Cdk9/cyclinT1 is purchased from Millipore, cat #14-685. The final total protein concentration in the assay 4 nM. […] The final concentration of peptide substrate is 100 nM. The ATP substrate (Adenosine-5′-triphosphate) is purchased from Roche Diagnostics, cat#1140965. The final concentration of ATP substrate is 6 uM. IMAP (Immobilized Metal Assay for Phosphochemicals) Progressive Binding reagent is purchased from Molecular Devices, cat#R8139. Fluorescence polarization (FP) is used for detection. The 5TAMRA-cdk7tide peptide is phosphorylated by Cdk9/cyclinT1 kinase using the ATP substrate. The Phospho-5TAMRA-cdk7tide peptide substrate is bound to the IMAP Progressive Binding Reagent. The binding of the IMAP Progressive Binding Reagent changes the fluorescence polarization of the 5TAMRA-cdk7tide peptide which is measured at an excitation of 531 nm and FP emission of 595 nm. Assays are carried out in 100 mM Tris, pH=7.2, mM MgCl2, 0.05% NaN3, 0.01% Tween-20, 1 mM dithiothreitol and 2.5% dimethyl sulfoxide. IMAP Progressive Binding Reagent is diluted 1:800 in 100% 1× Solution A from Molecular Devices, cat#R7285.
General protocol is as follows: To 10 ul of cdk9/cyclinT1, 0.5 ul of test compound in dimethyl sulfoxide is added. 5TAMRA-cdk7tide and ATP are mixed. 10 ul of the 5TAMRA-cdk7tide/ATP mix is added to start the reaction. The reaction is allowed to proceed for 4.5 hrs. 60 uL of IMAP Progressive Binding Reagent is added. After >1 hr of incubation, plates are read on the Envision 2101 from Perkin-Elmer. The assay is run in a 384-well format using black Corning plates, cat#3573.
A general note: Polarisation of emitted light reports the rotation of a fluorescent probe.
Usually IC50 stands for the concentration that inhibits the measured activity by half. High values mean a need for much substance, low ones inhibition by little substance. The compound `Clc1cnc(N[C@H]2CC[C@H](NC3CCOC3)CC2)cc1-c1nc(NCC2CCOCC2)ccc1Cl` (mixture of isomers) [Compound 280, 3,5′-dichloro-N6-((tetrahydro-2H-pyran-4-yl)methyl)-N2′-(trans-4-(tetrahydrofuran-3-yl-amino)cyclohexyl)-2,4′-bipyridine-2′,6-diamine] registered a half-maximal inhibitory concentration (IC50) of 16.1 nM.

`CC1(C)CC(CNc2ccc(Cl)c(-c3cc(N[C@H]4CC[C@H](O)CC4)ncc3Cl)n2)CCO1` (stereo partly drawn) [Compound 297, trans-4-(3,5′-dichloro-6-((2,2-dimethyltetrahydro-2H-pyran-4-yl)methyl)amino-2,4′-bipyridin-2′-yl-amino)cyclohexanol] registered a 50% inhibitory concentration (IC50) of 1 nM.

`Fc1ccc(-c2cc(N[C@H]3CC[C@H](NC4COC4)CC3)ncc2Cl)nc1NCC1CCOCC1` [Compound 281] yielded an IC50 of 61.2 nM.

`N[C@H]1CC[C@H](Nc2cc(-c3cccc(N[C@@H]4CC45CCOCC5)n3)c(Cl)cn2)CC1` [Compound 212] came in with a half-inhibitory concentration (IC50) of 54.6 nM.

In the case of `CC1(CN[C@H]2CC[C@H](Nc3cc(-c4ccc(F)c(NCC5CCOCC5)n4)c(Cl)cn3)CC2)OCCO1` [Compound 333, 5′-chloro-5-fluoro-N2′-(trans-4-((2-methyl-1,3-dioxolan-2-yl)methyl)aminocyclohexyl)-N6-((tetrahydro-2H-pyran-4-yl)methyl)-2,4′-bipyridine-2′,6-diamine], half-maximal inhibition (IC50) was put at 4 nM.

For “(S)-3-(trans-4-(3,5′-dichloro-6-((tetrahydro-2H-pyran-4-yl)methyl)amino-2,4′-bipyridin-2′-yl-amino)cyclohexylamino)-1,1,1-trifluoropropan-2-ol [Compound 289]”, half-maximal inhibition (IC50) required 4 nM.

With `CC(CS(C)(=O)=O)N[C@H]1CC[C@H](Nc2cc(-c3ccc(F)c(NCC4CCOCC4)n3)c(Cl)cn2)CC1` (stereo partly shown) [Compound 319], half-maximal inhibition (IC50) was put at 4 nM.

Compound `NC[C@H]1CC[C@H](Nc2cc(-c3cncc(NCC4CCOCC4)n3)c(Cl)cn2)CC1` [Compound 246] registered an IC50 of 11.5 nM.

Turning to `CN(CC1CCOCC1)c1cncc(-c2cc(N[C@H]3CC[C@H](N)CC3)ncc2Cl)n1` [Compound 248], the concentration for half-maximal inhibition (IC50) came out at 10.6 nM.

`N[C@H]1CC[C@H](Nc2cc(-c3cccc(NCc4cccc(F)c4)n3)c(F)cn2)CC1` [Compound 197] yielded an IC50 of 7.94 nM.

For the compound `Fc1ccc(CNc2cccc(-c3cc(N[C@H]4CCCNC4)ncc3Cl)n2)cc1F` [Compound 100], the half-maximal inhibitory concentration (IC50) came to 309 nM.

Consider `FC(F)(F)OCCN[C@H]1CC[C@H](Nc2cc(-c3cccc(NCC4CCOCC4)n3)c(Cl)cn2)CC1` [Compound 301, 5′-chloro-N6-((tetrahydro-2H-pyran-4-yl)methyl)-N2′-(trans-4-(2-(trifluoromethoxy)ethylamino)cyclohexyl)-2,4′-bipyridine-2′,6-diamine], for which half-maximal inhibition (IC50) was put at 3 nM.

Compound `Fc1cccc(CNc2cccc(-c3cc(NCC4CCOCC4)ncc3Cl)n2)c1` [Compound 143] came in with an IC50 of 22.7 nM.

Take `Nc1ncc(-c2cc(N[C@H]3CC[C@H](O)CC3)ncc2Cl)nc1NCC1CCOCC1` [Compound 227]: half-maximal inhibition (IC50) was put at 25.9 nM.

Turning to `Fc1ccc(CNc2cccc(-c3cc(NC4CCNCC4)ncc3Cl)n2)cc1F` [Compound 74], the midpoint of inhibition, the IC50, lay at 41.6 nM.

As for `NC[C@H]1CC[C@H](Nc2cc(-c3cccc(NCc4ccccc4)n3)c(Cl)cn2)CC1` [Compound 57], the half-maximal inhibitory concentration (IC50) stood at 32.6 nM.

Turning to `NC(=O)c1ccc(-c2cc(N[C@H]3CC[C@H](N)CC3)ncc2Cl)nc1NCc1cccc(F)c1` [Compound 14, 2′-((1r,4r)-4-aminocyclohexylamino)-5′-chloro-6-(3-fluorobenzylamino)-2,4′-bipyridine-5-carboxamide], the IC50 came to 522 nM.

For the compound `Fc1cc(F)cc(CNc2cccc(-c3cc(N[C@@H]4CCCNC4)ncc3Cl)n2)c1` [Compound 92], it took 296 nM to reach half-maximal inhibition (IC50).

Compound `N[C@H]1CC[C@H](Nc2cc(-c3cc(C(=O)O)cc(NCc4cccc(F)c4)n3)c(Cl)cn2)CC1` [Compound 17, 2′-(trans-4-aminocyclohexylamino)-5′-chloro-6-(3-fluorobenzylamino)-2,4′-bipyridine-4-carboxylic acid] displayed an IC50 of 23.2 nM.

`CN(CC1CCOCC1)c1cncc(-c2cc(N[C@H]3CC[C@H](CN)CC3)ncc2Cl)n1` [Compound 249, 6-(2-(trans-4-(aminomethyl)cyclohexylamino)-5-chloropyridin-4-yl)-N-methyl-N-((tetrahydro-2H-pyran-4-yl)methyl)pyrazin-2-amine]: the concentration for half-maximal inhibition (IC50) was 31.8 nM.

The compound `CNC(=O)[C@H]1CC[C@H](Nc2cc(-c3cccc(NCc4cccc(F)c4)n3)c(Cl)cn2)CC1` [Compound 113] yielded an IC50 of 50.2 nM.

The compound `CNC[C@H]1CC[C@H](Nc2cc(-c3cccc(NCc4cccc(F)c4)n3)c(Cl)cn2)CC1` [Compound 22, 5′-chloro-N6-(3-fluorobenzyl)-N2′-(trans-4-((methylamino)methyl)cyclohexyl)-2,4′-bipyridine-2′,6-diamine] displayed an IC50 of 7.95 nM.

For `O[C@H]1CC[C@H](Nc2cc(-c3cccc(NCC4CCOCC4)n3)c(Cl)cn2)CC1` [Compound 126], the concentration for half-maximal inhibition (IC50) worked out at 33.3 nM.

In turn, `Nc1ncc(-c2cc(N[C@H]3CC[C@H](N)CC3)ncc2Cl)nc1NCC1CCOCC1` [Compound 226, 6-(2-(trans-4-aminocyclohexylamino)-5-chloropyridin-4-yl)-N2-((tetrahydro-2H-pyran-4-yl)methyl)pyrazine-2,3-diamine] had a half-inhibitory concentration (IC50) of 7.95 nM.

`OCCN[C@H]1CC[C@H](Nc2cc(-c3cccc(NCc4cccc(F)c4)n3)c(Cl)cn2)CC1` [Compound 19, 2-(trans-4-(5′-chloro-6-(3-fluorobenzylamino)-2,4′-bipyridin-2′-yl-amino)cyclohexylamino)ethanol]: the IC50 worked out at 7.95 nM.

The compound `NC[C@H]1CC[C@H](Nc2cc(-c3cccc(NCc4cncc(F)c4)n3)c(Cl)cn2)CC1` [Compound 59] returned a half-inhibitory concentration (IC50) of 9.13 nM.

As to `N[C@H]1CC[C@H](Nc2cc(-c3cncc(NC[C@@H]4CCCOC4)n3)c(Cl)cn2)CC1` [Compound 262], it took 7.94 nM to reach half-maximal inhibition (IC50).

In turn, `N[C@H]1CC[C@H](Nc2cc(-c3nc(NCC4CCOCC4)cnc3Cl)ccn2)CC1` [Compound 232] showed a half-maximal inhibitory concentration (IC50) of 7.95 nM.

The compound `CO[C@H]1CC[C@H](Nc2cc(-c3cccc(NCc4cccc(F)c4)n3)c(Cl)cn2)CC1` [Compound 194] showed an IC50 of 48.1 nM.

Take `N[C@H]1CC[C@H](Nc2cc(-c3nc(NCC4CCOCC4)ccc3Br)c(Cl)cn2)CC1` [Compound 286, N2′-(trans-4-aminocyclohexyl)-3-bromo-5′-chloro-N6-((tetrahydro-2H-pyran-4-yl)methyl)-2,4′-bipyridine-2′,6-diamine]: half-maximal inhibition (IC50) was put at 1 nM.

`Nc1cc(-c2cccc(NCc3cccc(F)c3)n2)c(Cl)cn1` [Compound 179] came in with an IC50 of 544 nM.

Consider `O[C@H]1CC[C@@H](Nc2cc(-c3cccc(NCc4cccc(F)c4)n3)c(Cl)cn2)C1` [Compound 183], for which half-maximal inhibition (IC50) required 7.94 nM.

Take `NCCNc1cccc(-c2cc(N[C@H]3CC[C@H](O)CC3)ncc2Cl)n1` [Compound 117]: the half-maximal inhibitory concentration (IC50) amounted to 124 nM.

Compound `CCN[C@H]1CC[C@H](Nc2cc(-c3cccc(NCc4cccc(F)c4)n3)c(Cl)cn2)CC1` [Compound 88] gave an IC50 of 11 nM.

With `N#CC1(CNc2nc(-c3cc(N[C@H]4CC[C@H](N)CC4)ncc3Cl)ccc2F)CCOCC1` [Compound 341], half-maximal inhibition (IC50) required 0.15 nM.

The compound `CC(=O)NC[C@H]1CC[C@H](Nc2cc(-c3cncc(NCC4CCOCC4)n3)c(Cl)cn2)CC1` [Compound 247] displayed an IC50 of 20.2 nM.

`NC[C@H]1CC[C@H](Nc2cc(-c3cccc(NCc4cc(F)ccc4F)n3)c(Cl)cn2)CC1` [Compound 61]: the half-maximal inhibitory concentration (IC50) came out at 18.1 nM.

As to `COC[C@@H](C)N[C@H]1CC[C@H](Nc2cc(-c3cccc(NCC4(C#N)CCOCC4)n3)c(Cl)cn2)CC1` [Compound 358, 4-((5′-chloro-2′-((1R,4r)-4-((R)-1-methoxypropan-2-ylamino)cyclohexylamino)-2,4′-bipyridin-6-ylamino)methyl)tetrahydro-2H-pyran-4-carbonitrile], the 50% inhibitory concentration (IC50) amounted to 0.17 nM.

Regarding `Cc1ncc(-c2cc(N[C@H]3CC[C@H](N)CC3)ncc2Cl)nc1NCC1CCOCC1` [Compound 231, trans-N1-(5-chloro-4-(5-methyl-6-((tetrahydro-2H-pyran-4-yl)methyl)aminopyrazin-2-yl)pyridin-2-yl)cyclohexane-1,4-diamine], the IC50 was 14.9 nM.

`Clc1cnc(NC2CCNCC2)cc1-c1cccc(NCC2CCCCC2)n1` [Compound 68] displayed a concentration for half-maximal inhibition (IC50) of 274 nM.

`Fc1cccc(CNc2cccc(-c3cc(NCC4CCNCC4)ncc3Cl)n2)c1` [Compound 162] returned a half-maximal inhibitory concentration (IC50) of 14 nM.

`Clc1cnc(N[C@H]2CC[C@H](NC[C@@H]3CCCO3)CC2)cc1-c1cccc(NCC2CCOCC2)n1` [Compound 278] came in with an IC50 of 7.94 nM.

The compound `O=C(N[C@H]1CC[C@H](Nc2cc(-c3cccc(NCc4cccc(F)c4)n3)c(Cl)cn2)CC1)c1cccnc1` [Compound 81] came in with an IC50 of 54.2 nM.
